Data reported in article PMC10226132, “First-in-Class Selective Inhibitors of the Lysine Acetyltransferase KAT8” (Journal of Medicinal Chemistry, 2023).

Tests used:
HCT116 cells = experiment: Cell cycle analysis by propidium iodide staining, HCT116; assay type: cell-based, human; details: 72 h
Procedure: (§1) For the analysis of the progression of cells through cell cycle phases and sub-G1 peak identification, 24 h after plating, cells were treated with the different compounds. After 72 h, both floating and adherent cells were collected and fixed with cold 70% ethanol. At least 24 h after fixation, cells were incubated with 0.025 mg/mL Propidium Iodide for 15 min at room temperature and analyzed. For Annexin V analysis, 24 h after plating, cells were treated with 50 and 100 μM of the compounds. In the case of chloroquine experiments, 10 μM chloroquine (Sigma-Aldrich, A9165) was added 30 min before compounds. 72 h after treatment, both floating and adherent cells were collected and stained with an Annexin V-FITC apoptosis detection kit (ENZO #ALX-850-020-KI). Samples were incubated 15 min in the dark at rt, and 10,000 events were then analyzed.

KDAC6 = target: T1, KDAC6 (Homo sapiens, UniProt Q9UBN7); experiment: KDAC inhibition assay, KDAC6; assay type: biochemical; details: mean of three technical replicates
T1 sequence (Q9UBN7 1-1215): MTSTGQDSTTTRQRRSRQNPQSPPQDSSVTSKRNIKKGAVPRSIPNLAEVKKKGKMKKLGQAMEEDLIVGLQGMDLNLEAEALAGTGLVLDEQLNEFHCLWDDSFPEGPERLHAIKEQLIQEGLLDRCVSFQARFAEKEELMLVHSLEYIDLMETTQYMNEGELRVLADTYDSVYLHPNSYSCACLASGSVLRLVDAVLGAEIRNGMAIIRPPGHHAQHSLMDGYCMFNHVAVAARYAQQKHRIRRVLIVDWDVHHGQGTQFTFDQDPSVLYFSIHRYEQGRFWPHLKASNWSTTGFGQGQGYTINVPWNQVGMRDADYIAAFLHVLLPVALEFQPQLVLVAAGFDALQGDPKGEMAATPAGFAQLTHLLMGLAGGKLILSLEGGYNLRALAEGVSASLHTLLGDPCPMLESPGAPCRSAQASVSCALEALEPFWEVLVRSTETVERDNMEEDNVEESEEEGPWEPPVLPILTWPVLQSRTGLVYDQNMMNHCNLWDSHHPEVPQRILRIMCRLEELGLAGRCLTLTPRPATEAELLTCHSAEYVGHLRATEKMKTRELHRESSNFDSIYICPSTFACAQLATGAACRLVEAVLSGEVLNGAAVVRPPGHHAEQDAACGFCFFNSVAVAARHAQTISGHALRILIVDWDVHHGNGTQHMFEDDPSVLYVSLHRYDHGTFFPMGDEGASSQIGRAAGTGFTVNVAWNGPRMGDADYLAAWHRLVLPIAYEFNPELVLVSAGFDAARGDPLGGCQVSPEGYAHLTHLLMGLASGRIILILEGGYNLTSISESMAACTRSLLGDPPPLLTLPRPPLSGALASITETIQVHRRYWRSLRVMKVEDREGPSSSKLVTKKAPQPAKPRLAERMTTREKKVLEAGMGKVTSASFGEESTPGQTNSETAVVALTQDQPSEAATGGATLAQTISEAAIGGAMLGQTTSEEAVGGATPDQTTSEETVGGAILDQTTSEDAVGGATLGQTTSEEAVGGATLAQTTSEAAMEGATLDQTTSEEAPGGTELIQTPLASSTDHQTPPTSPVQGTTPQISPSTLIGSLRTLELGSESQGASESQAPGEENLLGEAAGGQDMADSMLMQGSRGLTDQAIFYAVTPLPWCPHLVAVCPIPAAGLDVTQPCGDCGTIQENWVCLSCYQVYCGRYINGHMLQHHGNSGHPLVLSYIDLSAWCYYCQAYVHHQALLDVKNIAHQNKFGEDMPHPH
Procedure: (§2) KDAC1, 2, 3 6, and 8 inhibition assays were performed as described previously.[52] Briefly, the relevant human recombinant KDAC was diluted in an assay buffer with the following composition: 150 mM NaCl, 25 mM Tris–HCl (pH 8.0), 2.7 mM KCl, and 1 mM MgCl2; BSA (0.1 mg/mL) was also added in the case of KDAC1. Forty microliters of this solution were added to 10 μL of each inhibitor ([…]) and 50 μL of KDAC Assay substrate (Boc-Lys-(Ac)-AMC, 7–100 μM final concentration, depending on the KDAC isoform), and the resulting solution was mixed. […] After thorough mixing of the resulting solution, the plate was covered and incubated at 37 °C for 25 min and the fluorescence (λemission = 460 nm; λexcitation = 390 nm) was measured on a EnSight Multimode Plate Reader (Perkin Elmer). The shown values are average of three technical replicates ± SD.

KDAC3 = KDAC3 (Homo sapiens, UniProt O15379); experiment: KDAC inhibition assay, KDAC3; assay type: biochemical; details: mean of three technical replicates
Procedure: as §2

KDAC8 = target: T2, KDAC8 (Homo sapiens, UniProt Q9BY41); experiment: KDAC inhibition assay, KDAC8; assay type: biochemical; details: mean of three technical replicates
T2 sequence (Q9BY41 1-377): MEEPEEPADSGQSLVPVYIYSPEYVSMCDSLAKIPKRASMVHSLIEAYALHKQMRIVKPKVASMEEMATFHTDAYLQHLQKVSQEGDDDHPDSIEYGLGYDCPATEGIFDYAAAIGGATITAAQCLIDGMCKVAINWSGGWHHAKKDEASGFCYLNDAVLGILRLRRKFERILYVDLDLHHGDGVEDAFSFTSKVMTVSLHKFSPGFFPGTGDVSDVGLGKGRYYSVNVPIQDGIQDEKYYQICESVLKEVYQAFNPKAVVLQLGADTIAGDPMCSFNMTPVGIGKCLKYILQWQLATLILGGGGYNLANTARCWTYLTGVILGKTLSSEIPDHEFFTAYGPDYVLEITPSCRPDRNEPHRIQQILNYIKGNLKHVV
Procedure: as §2

HT29 cells = experiment: Annexin V/PI analysis, HT29; assay type: cell-based, human; details: 50 and 100 μM, 72 h, compared to control
Procedure: as §1

Sequence of KDAC3 (O15379 whole entry): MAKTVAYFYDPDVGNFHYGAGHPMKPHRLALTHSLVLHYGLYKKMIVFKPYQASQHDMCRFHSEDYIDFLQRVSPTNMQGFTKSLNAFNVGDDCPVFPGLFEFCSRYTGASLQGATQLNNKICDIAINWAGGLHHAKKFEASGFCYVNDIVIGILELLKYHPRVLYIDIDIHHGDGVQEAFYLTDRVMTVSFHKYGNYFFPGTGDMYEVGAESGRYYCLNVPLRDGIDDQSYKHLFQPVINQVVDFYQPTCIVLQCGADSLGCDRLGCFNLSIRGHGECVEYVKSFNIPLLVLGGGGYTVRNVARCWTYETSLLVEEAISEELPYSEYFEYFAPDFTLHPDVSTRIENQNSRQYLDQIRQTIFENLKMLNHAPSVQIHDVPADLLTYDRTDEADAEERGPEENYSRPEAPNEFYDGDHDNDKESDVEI
Sequence of KDAC3 (Q9Y618 395-489 partner limits assumed): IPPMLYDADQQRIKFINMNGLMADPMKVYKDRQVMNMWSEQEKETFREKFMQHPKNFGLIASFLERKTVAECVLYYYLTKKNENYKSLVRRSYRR

Compound | change in the different stages of cell cycle, HCT116 (HCT116 cells) | inhibition at 50 µM (KDAC6) [%] | inhibition at 100 µM (KDAC6) [%] | inhibition at 50 µM (KDAC3) [%] | inhibition at 100 µM (KDAC3) [%] | inhibition at 50 µM (KDAC8) [%] | inhibition at 100 µM (KDAC8) [%] | apoptotic cell population (Annexin V), HT29 (HT29 cells)
CC1=NN(c2ccc(C(=O)O)cc2)C(=O)/C1=C\c1ccc[nH]1 [Compound 19, (Z)-4-(4-((1H-Pyrrol-2-yl)methylene)-3-methyl-5-oxo-4,5-dihydro-1H-pyrazol-1-yl)benzoic Acid] | no significative change | 0.4 | 1.3 | 0.5 | 1.1 | 0.02 | 0.8 | only a slight increase in apoptotic cell population
O=C(O)c1ccc(N2N=C(c3ccccc3)/C(=C/c3ccc[nH]3)C2=O)cc1 [Compound 34, (Z)-4-(4-((1H-Pyrrol-2-yl)methylene)-5-oxo-3-phenyl-4,5-dihydro-1H-pyrazol-1-yl)benzoic Acid] | no significative change | 0.6 | 2.1 | 0.02 | 0.6 | 0.04 | 0.6 | only a slight increase in apoptotic cell population
CC1=NN(c2ccc(C(=O)O)cc2)C(=O)/C1=C\c1ccc(-c2cc(C)c(C)cc2[N+](=O)[O-])o1 [VII (C646), reference compound] |  | 87.2 | 98.1 | 54.5 | 86.2 | 77.6 | 89.1 | 
